One assay addresses CAAX prenyl protease 1 (Saccharomyces cerevisiae S288c, UniProt P47154). Nature of the assay: Ste24 protease inhibitors, dose response, biochemical, S. cerevisiae, plate reader, cherry-pick (AID 488815).
The next assay addresses CAAX prenyl protease 2 (Homo sapiens, UniProt Q9Y256). Nature of the assay: human Rce1 protease inhibitors, dose response, biochemical, yeast membranes, quenched-peptide fluorescence, cherry-pick (AID 588849).
Assay [1] deals with Cyclin-dependent kinase 8 (Homo sapiens, UniProt P49336). The experiment in a line: Navigating the Kinome. Panel member name: CDK8. It counts as functional.
The next assay deals with Activin receptor type-1 (Homo sapiens, UniProt Q04771). Nature of the assay: Navigating the Kinome. Panel member name: ACVR1. The class given is functional.
Assay [2] concerns the target Ribosomal protein S6 kinase alpha-3 (Homo sapiens, UniProt P51812). The class given is functional.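 Further: measured within a kinome-wide profiling panel.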
The target of assay [3] is Calcium/calmodulin-dependent protein kinase type II subunit alpha (Homo sapiens, UniProt Q9UQM7). Nature of the assay: Navigating the Kinome. Panel member name: CAMK2A. It counts as functional.
Assay [4] deals with Dual specificity mitogen-activated protein kinase kinase 1 (Homo sapiens, UniProt Q02750). Nature of the assay: Navigating the Kinome. Panel member name: MAP2K1. It counts as functional.
The target of assay [5] is Dual specificity protein kinase CLK4 (Homo sapiens, UniProt Q9HAZ1). It counts as functional.
The target in assay [6] is Serine/threonine-protein kinase pim-1 (Homo sapiens, UniProt P11309). The class given is functional.
For assay [7], the target named is Dual specificity tyrosine-phosphorylation-regulated kinase 1B (Homo sapiens, UniProt Q9Y463). Nature of the assay: Navigating the Kinome. Panel member name: DYRK1B. The class given is functional.
The target of assay [8] is Cyclin-dependent kinase 9 (Homo sapiens, UniProt P50750). The class given is functional.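 Further: value from the CDK9 entry of a kinome-spanning kinase panel.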
The target in assay [9] is Cyclin-dependent kinase 7 (Homo sapiens, UniProt P50613). The class given is functional.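 Further: value comes from a kinome-wide kinase profiling panel in which CDK7 is one member.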
Assay [10] deals with G protein-coupled receptor kinase 5 (Homo sapiens, UniProt P34947). The experiment in a line: Navigating the Kinome. Panel member name: GPRK5. It counts as functional.
In assay [11] the target is Inhibitor of nuclear factor kappa-B kinase subunit beta (Homo sapiens, UniProt O14920). It counts as functional.
Assay [12] concerns the target Tyrosine-protein kinase receptor UFO (Homo sapiens, UniProt P30530). The class given is functional.
Assay [13] deals with Fibroblast growth factor receptor 3 (Homo sapiens, UniProt P22607). It counts as functional.
Another assay addresses Focal adhesion kinase 1 (Homo sapiens, UniProt Q05397). It counts as functional.
In assay [14] the target is Dual specificity tyrosine-phosphorylation-regulated kinase 4 (Homo sapiens, UniProt Q9NR20). The class given is functional.
In assay [15] the target is Tyrosine-protein kinase ITK/TSK (Homo sapiens, UniProt Q08881). The class given is functional.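 Further: affinity for ITK measured as one member of a broad kinase panel profiling binding across the kinome.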
For a further assay, the target named is Ephrin type-A receptor 2 (Homo sapiens, UniProt P29317). It counts as functional.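 Further: EPHA2 tested as one member of a kinome-wide kinase panel.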
Assay [16] deals with Non-receptor tyrosine-protein kinase TYK2 (Homo sapiens, UniProt P29597). The class given is functional.
For assay [17], the target named is Calcium/calmodulin-dependent protein kinase type II subunit gamma (Homo sapiens, UniProt Q13555). It counts as functional.
The target in assay [18] is Calcium/calmodulin-dependent protein kinase type 1 (Homo sapiens, UniProt Q14012). The class given is functional.
Assay [19] deals with Serine/threonine-protein kinase Nek4 (Homo sapiens, UniProt P51957). It counts as functional.
In assay [20] the target is Mitogen-activated protein kinase kinase kinase 20 (Homo sapiens, UniProt Q9NYL2). It counts as functional.
In assay [21] the target is Receptor-type tyrosine-protein kinase FLT3 (Homo sapiens, UniProt P36888). It counts as functional.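 Further: FLT3 was tested as one member of a kinome-wide kinase panel.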
In assay [22] the target is Serine/threonine-protein kinase Nek2 (Homo sapiens, UniProt P51955). It counts as functional.
Assay [23] addresses Protein-tyrosine kinase 6 (Homo sapiens, UniProt Q13882). The class given is functional.
Assay [24] addresses cGMP-dependent protein kinase 1 (Homo sapiens, UniProt Q13976). It counts as functional.
For assay [25], the target named is Cell division cycle 7-related protein kinase (Homo sapiens, UniProt O00311). It counts as functional.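 Further: value obtained from a kinome-wide kinase panel.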
The target of assay [26] is Serine/threonine-protein kinase MRCK alpha (Homo sapiens, UniProt Q5VT25). The class given is functional.
Assay [27] addresses MAP kinase-activated protein kinase 2 (Homo sapiens, UniProt P49137). It counts as functional.
The next assay has as its target Aurora kinase B (Homo sapiens, UniProt Q96GD4). It counts as functional.
Assay [28] addresses Calcium/calmodulin-dependent protein kinase type II subunit delta (Homo sapiens, UniProt Q13557). It counts as functional.
Assay [29] has as its target STE20-like serine/threonine-protein kinase (Homo sapiens, UniProt Q9H2G2). It counts as functional.
The target of assay [30] is Lymphokine-activated killer T-cell-originated protein kinase (Homo sapiens, UniProt Q96KB5). It counts as functional.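 Further: value comes from a kinase panel screen in which TOPK was one of the panel members.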
Assay [31] addresses Mast/stem cell growth factor receptor Kit (Homo sapiens, UniProt P10721). It counts as functional.
Assay [32] can be described thus: growth suppression of PTEN-null colon cells, dose response, cell-based, HCT116 PTEN knockout (AID 1047).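 Further: HCT116 colon tumor cells with PTEN knocked out; cells exposed to compound for 60 hours before readout; potency for loss of cell viability measured by luminescence.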 The class given is functional.

The source made the active and inactive calls.

Chain of Serine/threonine-protein kinase Nek4 (P51957 whole entry): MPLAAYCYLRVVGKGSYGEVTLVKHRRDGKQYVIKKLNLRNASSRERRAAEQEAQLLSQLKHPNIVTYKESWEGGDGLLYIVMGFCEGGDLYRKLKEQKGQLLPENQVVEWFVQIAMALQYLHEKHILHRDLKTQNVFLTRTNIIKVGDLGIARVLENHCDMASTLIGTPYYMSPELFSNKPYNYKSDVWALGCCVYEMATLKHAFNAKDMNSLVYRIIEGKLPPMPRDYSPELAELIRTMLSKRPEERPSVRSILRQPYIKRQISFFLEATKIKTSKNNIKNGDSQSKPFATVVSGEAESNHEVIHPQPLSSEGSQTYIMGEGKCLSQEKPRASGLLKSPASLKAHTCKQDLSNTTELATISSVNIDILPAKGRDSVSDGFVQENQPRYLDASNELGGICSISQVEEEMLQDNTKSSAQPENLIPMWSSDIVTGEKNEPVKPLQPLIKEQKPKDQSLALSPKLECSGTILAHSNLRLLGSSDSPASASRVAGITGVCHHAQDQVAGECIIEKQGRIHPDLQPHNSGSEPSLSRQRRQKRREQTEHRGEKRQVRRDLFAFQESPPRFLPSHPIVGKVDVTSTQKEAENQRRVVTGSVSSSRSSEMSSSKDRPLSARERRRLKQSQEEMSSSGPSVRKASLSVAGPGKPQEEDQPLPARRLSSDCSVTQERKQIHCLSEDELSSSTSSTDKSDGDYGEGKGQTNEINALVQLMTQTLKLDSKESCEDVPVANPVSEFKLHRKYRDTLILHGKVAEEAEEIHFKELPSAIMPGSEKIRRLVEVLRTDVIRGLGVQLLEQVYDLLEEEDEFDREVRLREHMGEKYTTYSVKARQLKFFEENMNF
Chain of Dual specificity protein kinase CLK4 (Q9HAZ1 whole entry): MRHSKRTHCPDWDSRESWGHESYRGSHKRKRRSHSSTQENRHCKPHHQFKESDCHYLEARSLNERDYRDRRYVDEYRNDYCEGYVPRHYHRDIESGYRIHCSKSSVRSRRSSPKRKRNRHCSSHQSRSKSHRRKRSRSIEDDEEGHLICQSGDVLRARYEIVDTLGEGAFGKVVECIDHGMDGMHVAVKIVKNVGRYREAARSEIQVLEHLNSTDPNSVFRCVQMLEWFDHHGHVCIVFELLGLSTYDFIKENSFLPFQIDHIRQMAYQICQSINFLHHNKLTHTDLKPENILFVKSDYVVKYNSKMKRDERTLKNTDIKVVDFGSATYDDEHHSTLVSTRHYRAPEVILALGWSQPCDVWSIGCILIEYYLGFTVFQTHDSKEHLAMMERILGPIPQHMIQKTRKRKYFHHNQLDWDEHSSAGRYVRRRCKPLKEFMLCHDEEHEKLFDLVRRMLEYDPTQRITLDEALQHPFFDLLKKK
Chain of Serine/threonine-protein kinase Nek2 (P51955 whole entry): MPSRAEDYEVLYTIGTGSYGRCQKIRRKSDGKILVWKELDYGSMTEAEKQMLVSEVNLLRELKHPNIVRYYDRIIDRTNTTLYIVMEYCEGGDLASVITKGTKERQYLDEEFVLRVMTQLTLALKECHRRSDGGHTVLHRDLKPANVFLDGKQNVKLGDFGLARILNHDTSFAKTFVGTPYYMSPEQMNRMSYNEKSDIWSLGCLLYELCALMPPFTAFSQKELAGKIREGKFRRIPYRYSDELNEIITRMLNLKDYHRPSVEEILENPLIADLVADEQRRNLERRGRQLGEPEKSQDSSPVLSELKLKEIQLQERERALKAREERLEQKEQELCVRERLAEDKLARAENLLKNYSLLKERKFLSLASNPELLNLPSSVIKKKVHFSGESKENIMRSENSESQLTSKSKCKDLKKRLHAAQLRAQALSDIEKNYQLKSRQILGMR
Chain of CAAX prenyl protease 1 (P47154 whole entry): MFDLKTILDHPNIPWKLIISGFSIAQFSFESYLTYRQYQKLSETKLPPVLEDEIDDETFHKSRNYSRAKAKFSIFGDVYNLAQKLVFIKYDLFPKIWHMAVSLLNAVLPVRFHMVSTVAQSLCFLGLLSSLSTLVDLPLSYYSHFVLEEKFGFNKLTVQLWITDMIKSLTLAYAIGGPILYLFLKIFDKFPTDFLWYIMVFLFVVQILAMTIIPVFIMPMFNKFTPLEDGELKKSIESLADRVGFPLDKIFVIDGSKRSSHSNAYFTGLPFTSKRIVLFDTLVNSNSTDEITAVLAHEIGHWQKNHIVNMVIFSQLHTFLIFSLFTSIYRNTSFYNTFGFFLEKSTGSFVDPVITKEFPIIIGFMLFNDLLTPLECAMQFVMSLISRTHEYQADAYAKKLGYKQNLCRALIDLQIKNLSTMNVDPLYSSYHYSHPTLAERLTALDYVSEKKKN
Chain of CAAX prenyl protease 2 (Q9Y256 whole entry): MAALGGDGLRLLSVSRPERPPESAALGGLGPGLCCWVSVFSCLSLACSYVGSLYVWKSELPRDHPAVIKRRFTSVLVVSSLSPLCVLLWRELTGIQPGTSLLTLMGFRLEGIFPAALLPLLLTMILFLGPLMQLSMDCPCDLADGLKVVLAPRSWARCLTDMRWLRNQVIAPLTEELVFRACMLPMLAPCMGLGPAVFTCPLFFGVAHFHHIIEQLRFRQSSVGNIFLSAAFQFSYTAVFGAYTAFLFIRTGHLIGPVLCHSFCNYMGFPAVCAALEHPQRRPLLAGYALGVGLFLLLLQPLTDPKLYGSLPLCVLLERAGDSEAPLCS
Chain of Ribosomal protein S6 kinase alpha-3 (P51812 whole entry): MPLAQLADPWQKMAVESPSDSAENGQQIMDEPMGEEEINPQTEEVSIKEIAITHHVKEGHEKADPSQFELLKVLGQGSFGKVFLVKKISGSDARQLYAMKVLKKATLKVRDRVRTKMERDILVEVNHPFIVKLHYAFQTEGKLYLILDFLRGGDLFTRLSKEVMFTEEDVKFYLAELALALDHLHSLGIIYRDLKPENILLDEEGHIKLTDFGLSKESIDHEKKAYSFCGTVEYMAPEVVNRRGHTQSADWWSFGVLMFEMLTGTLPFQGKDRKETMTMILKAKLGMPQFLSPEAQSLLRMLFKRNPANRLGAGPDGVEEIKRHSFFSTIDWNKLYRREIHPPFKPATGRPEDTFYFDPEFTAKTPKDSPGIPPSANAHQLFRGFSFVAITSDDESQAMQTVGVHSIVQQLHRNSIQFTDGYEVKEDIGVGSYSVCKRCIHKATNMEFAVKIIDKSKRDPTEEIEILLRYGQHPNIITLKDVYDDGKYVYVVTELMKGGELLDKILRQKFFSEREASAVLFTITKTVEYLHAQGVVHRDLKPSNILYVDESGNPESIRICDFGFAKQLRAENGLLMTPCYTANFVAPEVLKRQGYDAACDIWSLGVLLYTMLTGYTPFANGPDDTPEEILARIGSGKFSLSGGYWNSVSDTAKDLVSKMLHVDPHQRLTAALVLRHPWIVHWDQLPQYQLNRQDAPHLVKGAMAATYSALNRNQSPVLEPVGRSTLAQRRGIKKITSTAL
Chain of Serine/threonine-protein kinase MRCK alpha (Q5VT25 whole entry): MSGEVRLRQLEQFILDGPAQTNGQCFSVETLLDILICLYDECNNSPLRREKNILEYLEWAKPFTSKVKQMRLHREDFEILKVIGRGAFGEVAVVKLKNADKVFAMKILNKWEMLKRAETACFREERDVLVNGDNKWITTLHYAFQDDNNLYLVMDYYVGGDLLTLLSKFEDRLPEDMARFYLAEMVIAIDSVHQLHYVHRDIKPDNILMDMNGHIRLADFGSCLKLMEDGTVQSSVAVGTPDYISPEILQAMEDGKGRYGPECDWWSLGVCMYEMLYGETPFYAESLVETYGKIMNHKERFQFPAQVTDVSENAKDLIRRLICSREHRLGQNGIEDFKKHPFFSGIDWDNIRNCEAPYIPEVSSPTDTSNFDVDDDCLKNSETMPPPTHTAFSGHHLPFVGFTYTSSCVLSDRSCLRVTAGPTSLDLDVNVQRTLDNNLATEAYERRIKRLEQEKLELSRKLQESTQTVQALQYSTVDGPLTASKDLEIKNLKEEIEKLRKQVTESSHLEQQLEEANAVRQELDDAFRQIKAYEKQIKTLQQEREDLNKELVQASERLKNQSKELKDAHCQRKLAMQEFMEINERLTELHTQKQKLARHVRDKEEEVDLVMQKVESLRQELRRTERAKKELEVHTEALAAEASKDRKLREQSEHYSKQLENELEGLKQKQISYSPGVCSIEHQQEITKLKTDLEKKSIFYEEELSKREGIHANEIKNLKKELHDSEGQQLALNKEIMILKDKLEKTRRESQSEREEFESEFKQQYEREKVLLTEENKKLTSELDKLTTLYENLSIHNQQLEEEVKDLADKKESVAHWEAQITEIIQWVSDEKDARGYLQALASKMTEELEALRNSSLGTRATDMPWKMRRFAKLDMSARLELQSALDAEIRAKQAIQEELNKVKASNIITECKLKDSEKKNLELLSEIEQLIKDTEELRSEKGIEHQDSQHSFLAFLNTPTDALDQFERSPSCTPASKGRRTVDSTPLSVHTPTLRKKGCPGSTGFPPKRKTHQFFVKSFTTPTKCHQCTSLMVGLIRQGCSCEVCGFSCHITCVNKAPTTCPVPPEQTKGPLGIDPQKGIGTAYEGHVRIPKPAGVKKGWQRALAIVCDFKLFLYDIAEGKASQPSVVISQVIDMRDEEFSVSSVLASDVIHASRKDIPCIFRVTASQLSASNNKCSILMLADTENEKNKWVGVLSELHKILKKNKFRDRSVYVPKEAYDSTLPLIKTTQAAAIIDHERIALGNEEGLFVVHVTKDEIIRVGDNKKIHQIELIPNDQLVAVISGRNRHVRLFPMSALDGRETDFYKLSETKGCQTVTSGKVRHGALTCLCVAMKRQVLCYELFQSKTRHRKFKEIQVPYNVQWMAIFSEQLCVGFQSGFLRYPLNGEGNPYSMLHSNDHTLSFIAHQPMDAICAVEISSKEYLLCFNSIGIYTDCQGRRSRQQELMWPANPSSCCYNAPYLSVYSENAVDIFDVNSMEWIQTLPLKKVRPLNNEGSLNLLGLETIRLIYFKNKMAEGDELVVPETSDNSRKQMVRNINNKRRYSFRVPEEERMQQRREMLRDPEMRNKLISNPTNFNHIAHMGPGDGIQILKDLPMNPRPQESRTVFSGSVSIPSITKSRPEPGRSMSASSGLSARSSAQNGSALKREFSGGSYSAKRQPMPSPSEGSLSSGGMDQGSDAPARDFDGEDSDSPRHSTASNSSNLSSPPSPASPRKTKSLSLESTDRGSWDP

The term AC50 denotes the concentration giving half of the maximal activity seen. In the case of `CCCCCCCCCCC[N+](C)(C)CC/C=C1/c2ccccc2Sc2ccc(Cl)cc21`, the AC50 on CAAX prenyl protease 1 is 7070 nM (active); on CAAX prenyl protease 2 it was 58400 nM (active).

The term Ki denotes the equilibrium dissociation constant of an inhibitor or competing ligand from its target. For the compound `CCn1c(-c2nonc2N)nc2cncc(C(=O)N3CCC(N)C3)c21` (stereo not drawn), the inhibition constant Ki in [1] is 3980 nM (active); at Activin receptor type-1 it was > 3980 nM (inactive); in assay [2] it was 39.8 nM (active); in assay [3], > 7940 nM (inactive); in assay [4], > 2510 nM (inactive); in assay [5], 63.1 nM (active). The Ki is 20 nM (active) in assay [6]; 31.6 nM (active) in assay [7]; > 1580 nM (inactive) in assay [8]; 2510 nM (active) in assay [9]; 3980 nM (active) in [10].

For the compound `Cc1[nH]nc2ccc(-c3cncc(OCC(N)Cc4c[nH]c5ccccc45)c3)cc12` (stereo not drawn), the Ki in assay [11] is > 3160 nM (inactive); in assay [12] it was 794 nM (active); in assay [13], > 2000 nM (inactive); on Focal adhesion kinase 1, > 1580 nM (inactive); in [14], 251 nM (active); in [15] it was > 1580 nM (inactive). The Ki is > 3160 nM (inactive) at Ephrin type-A receptor 2; > 2000 nM (inactive) in [16]; 12.6 nM (active) in assay [17]; > 7940 nM (inactive) in [18]; 1000 nM (active) in [19]; > 7940 nM (inactive) in assay [20]. Further, the Ki is 316 nM (active) in [21]; > 10000 nM (inactive) in [22]; > 2510 nM (inactive) in [23]; 251 nM (active) in assay [24]; 12.6 nM (active) in assay [25]; 50.1 nM (active) in [26]. Further, the Ki in [27] is 2510 nM (active); on Aurora kinase B, 631 nM (active); in [28], 15.8 nM (active); in [29] it was > 10000 nM (inactive); in [30] it was 1000 nM (active); in assay [31], > 1260 nM (inactive).

For orientation: EC50 means the concentration giving half of the maximal effect. As for `COC(=O)c1ccccc1NC1=C/C(=N\S(=O)(=O)c2cccs2)c2ccccc2C1=O`, the EC50 in assay [32] is 7960 nM (active).

The record behind these values is ChEMBL document CHEMBL1201862, “PubChem BioAssay data set” (2004).
